Earlier results in patent publication US5654452A, “Lipophilic contrast agents for use in hepatocyte-selective oil-in-water emulsions” (Molecular Biosystems, Inc., priority 1995, dated 1997).

Test system: reticulendothelial system (RES)
Settings: in vivo

For CCOC(=O)c1c(I)cc(I)c(NC(=O)CCCCC(=O)Nc2c(I)cc(I)c(C(=O)OCC)c2I)c1I [iodipamide ethyl esters], the “uptake / liver specificity in reticuloendothelial system” value is given as “liver specificity is mediated primarily via sequestration by the reticulendothelial system (RES)”.
